Results: patent US12630537B2, “Pyridazinone and methods of use thereof” (ALIGOS THERAPEUTICS, INC., priority 2020, dated 2026)
Read-outs that look alike come from different tables or passages of the source.

Tests used:
[1] = Pharmacokinetic profile in mouse; format: in vivo
[2] = Hepatocyte stability assay, human; format: in vitro ADME; settings: for Hepatocytes % Remaining: 1 μM, time point not given; for half-life at 1 μM: cryopreserved hepatocytes, 0.5 million cells/mL, read-out: Hepatocytes T1/2
Protocol: (§1) Cryopreserved hepatocytes were taken from the liquid nitrogen tank and thawed quickly in a 37° C. water bath. As soon as the cells pulled away from the vial wall, they were decanted into 48 mL of warm thawing (HT) medium. Cells were centrifuged for 5 minutes at 420 RPM (50 g). After removing the supernatant, the pellets were re-suspended in 4 mL of warm Dulbecco's Modified Eagle Medium (DMEM). Cell density was counted by a hemocytometer.
(§2) The assay was carried out in 96-well microtiter plates. The study compound was incubated at 1 μM with 0.5 million cells/mL hepatocytes in DMEM for 0, 60, 120, and 180 minutes at 37° C. The volume of the incubation mixture was 37 μL with a final DMSO content of 0.1%. At each time point, the incubation was stopped by the addition of 150 μL quenching solution (100% acetonitrile, 0.1% formic acid containing the internal standard bucetin at 15 nM). Subsequently, the mixtures were vortexed for 20 minutes and centrifuged at 4,000 RPM at 10° C. An aliquot of 80 μL of the supernatant was transferred to a clean 96-well plate and analyzed by LC/MS/MS. Midazolam at 1 μM with a final DMSO content of 0.1% was included as a positive control to verify the assay performance.

[3] = Microsomal stability assay, rat; format: in vitro ADME; settings: for Liver Microsomes % Remaining: 1 μM, time point not given; for half-life at 1 μM: liver microsomes, pH 7.4, 0.5 mg/mL microsomes, read-out: Liver Microsomes T1/2
Protocol: (§3) The assay was carried out in 96-well microtiter plates. Test compounds, at a final concentration of 1 μM was incubated at 37° C. with 0.5 mg/mL liver microsomes, and +/−1 mM NADPH in 100 mM potassium phosphate, pH 7.4 buffer with 3.3 mM MgCl2. […] At each of the time points (0, 15, 30 and 60 min), incubation was stopped by adding 150 μL of the quenching solutions (100% acetonitrile, 0.1% formic acid) and subsequently the mixtures were vortexed vigorously for 20 min and centrifuged at 4,000 RPM at 4° C. The supernatants (80 μL) were transferred to a clean 96-well plate and analyzed by LC/MS/MS. Verapamil at 1 μM with a final 0.1% DMSO was included as a positive control to verify assay performance.

[4] = Microsomal stability assay, human; format: in vitro ADME; settings: for Liver Microsomes % Remaining: 1 μM, time point not given; for half-life at 1 μM: liver microsomes, pH 7.4, 0.5 mg/mL microsomes, read-out: Liver Microsomes T1/2
Protocol: as §3

[5] = Pharmacokinetics in rat (i.v.); format: in vivo, Male Sprague-Dawley rats; settings: for concentration at 12 h / clearance / half-life: male, Sprague-Dawley, iv 1 mg/kg; for clearance / half-life: 60% PEG400 in water
Protocol: Male Sprague-Dawley rats were administered the study compound as an i.v. bolus dose of 1 mg/kg in a 0.500 mg/mL solution in 60% PEG400 in water.

THR beta = biological target: T1, THR beta (Homo sapiens, UniProt P10828); test: HEK293T THRbeta/RXR luciferase reporter assay; format: cell-based
T1 construct: expressed in transfected cells; host or cells: HEK293T (ATCC CRL-3216)
T1 sequence (P10828 1-461): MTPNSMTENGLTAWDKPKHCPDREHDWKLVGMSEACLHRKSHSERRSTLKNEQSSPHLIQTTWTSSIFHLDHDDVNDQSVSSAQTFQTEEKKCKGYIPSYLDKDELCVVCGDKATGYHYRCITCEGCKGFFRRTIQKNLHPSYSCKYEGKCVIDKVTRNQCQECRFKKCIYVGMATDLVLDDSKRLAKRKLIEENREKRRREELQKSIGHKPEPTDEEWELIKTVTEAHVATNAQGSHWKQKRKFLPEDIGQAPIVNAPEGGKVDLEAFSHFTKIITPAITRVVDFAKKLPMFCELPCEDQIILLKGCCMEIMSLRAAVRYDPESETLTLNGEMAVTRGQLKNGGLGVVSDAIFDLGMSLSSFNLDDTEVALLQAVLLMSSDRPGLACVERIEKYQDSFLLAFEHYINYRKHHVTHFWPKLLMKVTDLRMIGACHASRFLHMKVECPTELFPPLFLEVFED
T1 sequence (P19793 1-462 partner): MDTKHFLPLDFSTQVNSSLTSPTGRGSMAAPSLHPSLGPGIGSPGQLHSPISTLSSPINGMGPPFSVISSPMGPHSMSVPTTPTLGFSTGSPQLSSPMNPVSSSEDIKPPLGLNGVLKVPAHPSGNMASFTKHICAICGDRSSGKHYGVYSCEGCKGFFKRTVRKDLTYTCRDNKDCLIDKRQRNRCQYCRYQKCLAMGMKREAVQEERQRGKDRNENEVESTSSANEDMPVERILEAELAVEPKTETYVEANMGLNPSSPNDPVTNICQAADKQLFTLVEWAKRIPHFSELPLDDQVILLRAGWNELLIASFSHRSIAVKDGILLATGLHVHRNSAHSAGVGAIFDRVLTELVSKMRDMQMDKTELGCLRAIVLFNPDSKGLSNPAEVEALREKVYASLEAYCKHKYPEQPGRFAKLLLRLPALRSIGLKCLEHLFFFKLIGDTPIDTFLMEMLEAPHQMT
Protocol: (§4) The purpose of this assay is to evaluate the effect of compounds on the thyroid hormone nuclear receptor pathway in HEK293T cells. To this end, HEK293T cells are transiently transfected with a luciferase reporter under the control of the thyroid response element (TRE), an RXR expression plasmid and either a THR alpha or THR beta expression plasmid. Transfected cells are stimulated with test compounds for 18-24 hours before activation of the thyroid hormone pathway is measured via a luciferase read-out.
(§5) Procedure. 24 hours prior to transfection, approximately […] HEK293T (ATCC, catalog #CRL-3216) were plated in one well of a 6-well-plate using DMEM (Hyclone, catalog #SH30022) supplemented with 10% FBS (Gibco, catalog #16000-044) and incubated overnight. Transfection complexes were prepared by mixing 12 μL of Lipofectamine 2000 (Invitrogen catalog #11668019) with 4 μg of a plasmid mixture at a ratio of 1:1:4 (TRalpha or TRbeta:RXR:TRE-Luc) in 200 μL OptiMem (Invitrogen catalog #11058-021) and added to the cells. […] Approximately 18-24 h after compound addition, 384 well plates were allowed to adjust to rt, 30 μL One-Glo (Promega catalog #E6120) is added to each well and luminescence was measured on a Perkin Elmer Enspire plate reader. Percent agonism was calculated using the following equation: 100×(sample−negative control)/(positive control−negative control).

[6] = Microsomal stability assay, mouse; format: in vitro ADME; settings: for Liver Microsomes % Remaining: 1 μM, time point not given; for half-life at 1 μM: liver microsomes, pH 7.4, 0.5 mg/mL microsomes, read-out: Liver Microsomes T1/2
Protocol: as §3

THR alpha = biological target: T2, THR alpha (Homo sapiens, UniProt P10827); test: HEK293T THRalpha/RXR luciferase reporter assay; format: cell-based; settings: HEK293T TRE-luciferase reporter, 18-24 h; read-out: EC50 THR-α (HEK 293 Activity)
T2 construct: expressed in transfected cells; host or cells: HEK293T (ATCC CRL-3216)
T2 sequence (P10827 1-410 isoform P10827-2): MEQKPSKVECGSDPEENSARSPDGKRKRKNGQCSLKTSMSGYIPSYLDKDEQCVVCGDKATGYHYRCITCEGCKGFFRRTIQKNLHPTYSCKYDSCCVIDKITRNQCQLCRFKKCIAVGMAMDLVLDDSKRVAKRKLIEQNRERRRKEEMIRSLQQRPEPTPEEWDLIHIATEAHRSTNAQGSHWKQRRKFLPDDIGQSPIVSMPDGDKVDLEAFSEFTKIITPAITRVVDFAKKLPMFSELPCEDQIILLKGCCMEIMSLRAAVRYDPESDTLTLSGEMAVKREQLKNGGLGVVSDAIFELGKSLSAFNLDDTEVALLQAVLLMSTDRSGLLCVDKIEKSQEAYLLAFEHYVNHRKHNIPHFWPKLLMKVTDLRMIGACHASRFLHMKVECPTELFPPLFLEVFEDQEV
T2 sequence (P19793 1-462 partner): T1 sequence (P19793 1-462 partner)
Protocol: as §4, §5

[7] = system: WT C57BL/6 mice fed a high fat diet; test: Cholesterol reduction in a murine efficacy model; format: in vivo, mouse; settings: 0.025 mg/kg BID p.o., 7 days, high fat diet C57BL/6 mice
Protocol: Model description. WT C57BL/6 mice were fed a high fat diet (D12109C) for 2 weeks. Prior to the administration of compound 1a, blood was drawn to measure the baseline lipid levels. Compound 1a was dosed daily (p.o.) for 7 days. Blood was drawn to measure lipid levels.

[8] = Hepatocyte stability assay, rat; format: in vitro ADME; settings: for Hepatocytes % Remaining: 1 μM, time point not given; for half-life at 1 μM: cryopreserved hepatocytes, 0.5 million cells/mL, read-out: Hepatocytes T1/2
Protocol: as §1, §2

[9] = biological target: T3, human thyroid receptor beta ligand-binding domain (THR-β) (Homo sapiens, UniProt P10828); test: TR-FRET thyroid receptor beta coactivator assay (THR biochemical assay)
T3 sequence (P10828 217-461 limits assumed): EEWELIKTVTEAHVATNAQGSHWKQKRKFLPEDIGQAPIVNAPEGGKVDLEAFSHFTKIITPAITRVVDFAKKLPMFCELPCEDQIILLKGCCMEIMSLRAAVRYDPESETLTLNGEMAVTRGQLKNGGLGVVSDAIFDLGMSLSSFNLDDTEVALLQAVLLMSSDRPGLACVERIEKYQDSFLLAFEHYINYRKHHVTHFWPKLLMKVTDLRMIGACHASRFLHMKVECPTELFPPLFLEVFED
Text: (§6) The TR-FRET thyroid receptor beta coactivator assay was used with slight, optimized modifications of the manufacturer's protocol (Invitrogen). The assay uses a terbium-labeled anti-GST antibody, a glutathione-S-transferase (GST) tagged human thyroid receptor, beta or alpha, ligand-binding domain (LBD), and a fluorescein labeled SRC2-2 coactivator peptide. […] The energy transfer was detected as an increase in the fluorescence emission of the fluorescein acceptor, and a decrease in the fluorescence emission of the terbium donor. The assay was performed in a 384-well black plate in a final volume of 20 μL. Serial dilution of various test agonists was performed in DMSO (1% final DMSO concentration) and added to the test plate. Thyroid receptor beta LBD was added to the plate at a final concentration of 1 nM, followed by the mixture of the fluorescein labeled SRC2-2 coactivator peptide, and the terbium-labeled anti-GST antibody at final concentrations of 200 nM and 2 nM respectively. The assay was incubated for 1 hr at rt protected from light.

[10] = Hepatocyte stability assay, mouse; format: in vitro ADME; settings: for Hepatocytes % Remaining: 1 μM, time point not given; for half-life at 1 μM: cryopreserved hepatocytes, 0.5 million cells/mL, read-out: Hepatocytes T1/2
Protocol: as §1, §2

[11] = biological target: human thyroid receptor alpha ligand-binding domain (THR-α) (Homo sapiens, UniProt P10827); test: TR-FRET thyroid receptor coactivator assay (THR biochemical assay), alpha
Text: as §6

Row | Hepatocytes % Remaining [2] | half-life at 1 μM [2] | Liver Microsomes % Remaining [3] | half-life at 1 μM [3] | Liver Microsomes % Remaining [4] | half-life at 1 μM [4] | clearance ([5]; plasma) | half-life ([5]; plasma) | Liver Microsomes % Remaining [6] | half-life at 1 μM [6] | Hepatocytes % Remaining [8] | half-life at 1 μM [8] | Hepatocytes % Remaining [10] | half-life at 1 μM [10] | Compound | other results
1 | (100) % | > 6 h | (98) % | > 1 h | (107) % | > 1 h | 2.14 mL/min/kg | 5.25 h | (100) % | > 1 h | (107) % | > 6 h | (88) % | > 6 h | CC(c1cc(Oc2c(Cl)cc(-n3nc(N)c(=O)[nH]c3=O)cc2Cl)n[nH]c1=O)C1CC1 (single isomer, unassigned) [Compound 1a] | Liver/Heart Concentration ([1]; at 24 h): 27.6 at 24 h; clearance ([1]; in vivo): 6.3 mL/min/kg; half-life ([1]; in vivo): 2.87 h; Liver/Heart Concentration ([5]; at 12 h): 62 at 12 h; in vivo half-life compared to compound 2 ([5]; comparison in words): unexpectedly longer; concentration at 12 h ([5]; liver, read-out: Liver conc. 12 h): 14400 ng/g; concentration at 12 h ([5]; plasma, read-out: Plasma conc. 12 h): 336 ng/mL; EC50 (THR beta; HEK293T TRE-luciferase reporter, 18-24 h, read-out: EC50 THR-β (HEK 293 Activity)): 0.038 µM; THR-β Selectivity (HEK 293 Activity) (THR beta; THR-β over THR-α, HEK293T reporter): 5; EC50 (THR alpha): 0.201 µM; reduction in cholesterol [7]: 24.5%; EC50 [9]: 0.026 µM; THR-β Selectivity (Biochemical Activity) ([9]; THR-β over THR-α, TR-FRET assay): 9.5; in vitro THR-β selectivity compared to its enantiomer, compound 1b ([9]; biochemical assay, comparison in words): higher; EC50 [11]: 0.252 µM
2 | (31) % | 1.72 h | (85) % | > 1 h | (84) % | > 1 h | 9.14 mL/min/kg | 1.31 h | (94) % | > 1 h | (24) % | 1.43 h | (18) % | 1.18 h | C#Cc1nn(-c2cc(Cl)c(Oc3cc(C(C)C)c(=O)[nH]n3)c(Cl)c2)c(=O)[nH]c1=O [Compound 2, reference compound] | 
